Common to all, as to experiment: in vitro radiometric kinase assay
Format in all cases: biochemical

Assay [1] has as its target T1, Aurora A kinase (Homo sapiens, UniProt O14965).
T1 sequence (O14965 122-403): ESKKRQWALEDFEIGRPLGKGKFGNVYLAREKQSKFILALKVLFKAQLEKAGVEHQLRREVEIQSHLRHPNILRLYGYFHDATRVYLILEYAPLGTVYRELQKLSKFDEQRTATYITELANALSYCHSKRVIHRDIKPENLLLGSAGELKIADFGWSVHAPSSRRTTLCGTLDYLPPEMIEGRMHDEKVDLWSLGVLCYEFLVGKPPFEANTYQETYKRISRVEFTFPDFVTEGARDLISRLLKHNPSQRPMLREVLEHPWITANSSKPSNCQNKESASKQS
T1 sequence (Q9ULW0 1-747 partner): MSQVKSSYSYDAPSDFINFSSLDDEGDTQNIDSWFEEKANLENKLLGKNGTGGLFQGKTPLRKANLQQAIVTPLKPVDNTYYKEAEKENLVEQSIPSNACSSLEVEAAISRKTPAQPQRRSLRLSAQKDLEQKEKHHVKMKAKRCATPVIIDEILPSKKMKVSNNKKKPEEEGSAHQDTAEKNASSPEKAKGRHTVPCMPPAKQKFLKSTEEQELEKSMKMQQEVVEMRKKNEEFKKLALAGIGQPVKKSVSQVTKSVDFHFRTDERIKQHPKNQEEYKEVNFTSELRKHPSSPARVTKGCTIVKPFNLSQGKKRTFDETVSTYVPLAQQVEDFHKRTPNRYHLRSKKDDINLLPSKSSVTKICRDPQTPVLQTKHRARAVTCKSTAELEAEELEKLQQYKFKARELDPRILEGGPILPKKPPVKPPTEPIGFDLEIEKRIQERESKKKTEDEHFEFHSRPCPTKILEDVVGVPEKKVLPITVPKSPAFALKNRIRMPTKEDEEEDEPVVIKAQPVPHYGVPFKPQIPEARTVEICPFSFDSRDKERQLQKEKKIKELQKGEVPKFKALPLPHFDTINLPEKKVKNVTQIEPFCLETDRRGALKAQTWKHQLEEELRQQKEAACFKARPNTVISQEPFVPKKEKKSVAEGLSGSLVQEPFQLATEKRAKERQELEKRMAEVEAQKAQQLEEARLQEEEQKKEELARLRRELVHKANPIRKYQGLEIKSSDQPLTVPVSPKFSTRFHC

Assay [2] has as its target Cdk1/cyclinB (Homo sapiens, UniProt P06493).
For assay [3], the target named is Aurora B kinase (Xenopus laevis, UniProt Q6DE08).
In assay [4] the target is Cdk5/p25 (Homo sapiens, UniProt Q00535).

Among the data in PMC2655231 (Cancer research, 2009) are IC50 values, retold here.

SMILES strings stand for the structures.

Sequence of Cdk1/cyclinB (P06493 whole entry): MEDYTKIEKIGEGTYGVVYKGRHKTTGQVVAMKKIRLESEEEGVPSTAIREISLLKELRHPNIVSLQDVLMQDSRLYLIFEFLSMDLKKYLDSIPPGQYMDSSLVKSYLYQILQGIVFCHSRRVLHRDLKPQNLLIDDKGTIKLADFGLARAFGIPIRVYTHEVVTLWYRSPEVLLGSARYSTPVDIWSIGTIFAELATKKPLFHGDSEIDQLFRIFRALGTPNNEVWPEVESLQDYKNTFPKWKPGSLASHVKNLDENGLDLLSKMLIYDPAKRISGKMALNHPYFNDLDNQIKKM
Sequence of Cdk1/cyclinB (P14635 whole entry partner): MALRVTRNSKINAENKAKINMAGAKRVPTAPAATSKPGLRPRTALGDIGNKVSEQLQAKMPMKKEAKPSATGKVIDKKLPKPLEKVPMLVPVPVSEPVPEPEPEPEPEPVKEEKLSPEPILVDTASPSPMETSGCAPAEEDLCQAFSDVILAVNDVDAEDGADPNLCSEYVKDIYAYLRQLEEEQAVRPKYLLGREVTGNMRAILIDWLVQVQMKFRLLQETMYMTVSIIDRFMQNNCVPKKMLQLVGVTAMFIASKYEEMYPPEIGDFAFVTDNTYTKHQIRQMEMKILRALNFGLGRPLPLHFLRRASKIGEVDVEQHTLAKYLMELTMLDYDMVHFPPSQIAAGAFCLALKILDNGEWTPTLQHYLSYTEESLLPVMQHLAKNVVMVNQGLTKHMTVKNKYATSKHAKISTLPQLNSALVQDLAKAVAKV
Sequence of Aurora B kinase (Q6DE08 60-361 limits assumed): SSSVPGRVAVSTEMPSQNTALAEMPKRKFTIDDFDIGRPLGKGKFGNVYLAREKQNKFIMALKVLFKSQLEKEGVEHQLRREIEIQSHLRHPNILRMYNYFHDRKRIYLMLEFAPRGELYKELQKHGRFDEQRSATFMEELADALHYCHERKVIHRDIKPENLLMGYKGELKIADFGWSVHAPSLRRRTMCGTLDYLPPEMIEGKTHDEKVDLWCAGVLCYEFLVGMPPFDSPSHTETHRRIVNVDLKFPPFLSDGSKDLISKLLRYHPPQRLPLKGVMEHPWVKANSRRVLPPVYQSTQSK
Sequence of Aurora B kinase (O13024 whole entry partner): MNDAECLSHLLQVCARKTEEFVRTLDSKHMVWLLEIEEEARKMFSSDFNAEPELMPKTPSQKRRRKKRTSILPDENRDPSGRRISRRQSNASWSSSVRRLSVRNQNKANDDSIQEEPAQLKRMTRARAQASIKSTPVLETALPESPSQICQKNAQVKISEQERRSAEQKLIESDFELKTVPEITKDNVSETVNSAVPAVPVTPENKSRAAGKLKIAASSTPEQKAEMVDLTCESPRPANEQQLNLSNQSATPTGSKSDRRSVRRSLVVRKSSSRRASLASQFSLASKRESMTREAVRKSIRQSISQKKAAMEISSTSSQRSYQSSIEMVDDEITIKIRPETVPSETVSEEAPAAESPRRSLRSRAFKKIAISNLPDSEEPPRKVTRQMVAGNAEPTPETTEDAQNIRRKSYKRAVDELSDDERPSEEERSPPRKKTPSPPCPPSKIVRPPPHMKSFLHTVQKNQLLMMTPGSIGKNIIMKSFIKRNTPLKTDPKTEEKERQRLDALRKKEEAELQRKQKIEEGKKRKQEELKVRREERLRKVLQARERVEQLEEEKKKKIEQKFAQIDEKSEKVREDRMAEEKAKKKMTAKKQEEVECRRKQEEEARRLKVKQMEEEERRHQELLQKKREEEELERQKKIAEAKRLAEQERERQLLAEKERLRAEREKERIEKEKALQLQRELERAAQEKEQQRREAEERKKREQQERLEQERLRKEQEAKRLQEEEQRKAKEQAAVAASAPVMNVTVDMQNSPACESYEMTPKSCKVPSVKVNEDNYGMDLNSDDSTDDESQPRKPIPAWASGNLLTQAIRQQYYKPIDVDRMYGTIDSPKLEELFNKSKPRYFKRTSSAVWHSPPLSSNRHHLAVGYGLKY
Sequence of Cdk5/p25 (Q00535 whole entry): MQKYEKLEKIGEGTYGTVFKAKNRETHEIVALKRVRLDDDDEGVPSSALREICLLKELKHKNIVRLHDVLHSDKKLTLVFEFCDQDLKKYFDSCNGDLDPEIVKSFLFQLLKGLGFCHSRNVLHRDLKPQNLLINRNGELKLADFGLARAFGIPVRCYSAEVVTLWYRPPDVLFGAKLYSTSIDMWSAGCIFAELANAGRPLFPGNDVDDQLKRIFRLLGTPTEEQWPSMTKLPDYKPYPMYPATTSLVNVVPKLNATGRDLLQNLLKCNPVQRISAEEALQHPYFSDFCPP
Sequence of Cdk5/p25 (Q15078 2-307 partner): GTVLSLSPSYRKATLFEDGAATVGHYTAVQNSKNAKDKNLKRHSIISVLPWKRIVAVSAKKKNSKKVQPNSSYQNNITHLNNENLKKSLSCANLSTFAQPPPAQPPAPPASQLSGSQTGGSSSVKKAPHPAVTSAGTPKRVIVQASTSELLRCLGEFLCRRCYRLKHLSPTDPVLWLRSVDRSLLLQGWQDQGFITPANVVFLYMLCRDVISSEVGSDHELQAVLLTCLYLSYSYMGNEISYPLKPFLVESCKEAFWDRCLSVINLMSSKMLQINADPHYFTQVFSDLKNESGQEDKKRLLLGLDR

As to `COc1cc(/C=N/NC(=O)c2sc(N)nc2C)ccc1O` [OM137], the IC50 (in general, the point on the concentration scale where inhibition reaches its midpoint) in assay [1] is 21.7 µM; in assay [2], approximately 20 µM; in assay [3] it was 2.4 µM; in assay [4] it was approximately 20 µM.
